Reference: PubChem BioAssay AID463206 (Broad Institute, 2010)
Active and inactive are the calls of the source.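 Rule for the calls: active = caspase luminescence falls with dose and the half-maximal concentration AC50 from the fitted curve is at or below a set limit; inconclusive = flat fit at 30 to 70% signal loss, or invalid fit; inactive = AC50 above the limit, or signal rises instead.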

system: INS-1E cytokine-induced caspase-3/7, Caspase-Glo luminescence, 48 h; experiment: inhibitors of cytokine-induced caspase-3/7 activity, dose response, orthogonal assay for beta-cell apoptosis protection project, INS-1E rat cells, luminescence (AID 463206)

| Compound | AC50 |
| --- | --- |
| Cc1cc(Nc2cccc(Cl)c2)nc(NCc2ccccc2)n1 | > 26 µM (inactive) |
| CCCCCCCCCCOC(=O)Cn1c(COc2ccc(C)cc2)[n+](C)c2ccccc21 | > 26 µM (inactive) |
| COc1cccc(/C=N/NC(=O)CN2CC(c3ccccc3)CC2=O)c1O (stereo not drawn) | > 26 µM (inactive) |
| CCCCCCC[n+]1ccc(-c2cc[n+](CCCCCCC)cc2)cc1 | > 26 µM (inactive) |
| Cc1ccc(C2CC(c3cccc(Br)c3)n3nc(N)nc3N2)cc1 (stereo not drawn) | > 26 µM (inactive) |
| COc1ccc(-c2cn(-c3ccc(OC)cc3)c3[n+]2-c2ccccc2CC3)cc1 | > 26 µM (inactive) |
| Cn1ncc2c(O/N=C(\N)c3ccc(C(C)(C)C)cc3)ncnc21 | > 26 µM (inactive) |
| Cn1c(/C=C/c2ccc([N+](=O)[O-])o2)nc2ccccc2c1=O | > 26 µM (inactive) |
| CN(C)CC(C(=O)c1ccccc1)c1ccccc1 (stereo not drawn) | > 26 µM (inactive) |
| O=C(Nc1cccnc1)C1(F)C(F)(F)C(F)(F)C(F)(F)C(F)(F)C1(F)F | > 26 µM (inactive) |
| Cc1ccc2ccc3cccnc3c2n1 | > 26 µM (inactive) |
| COc1ccc2c(c1)c(/C=N/Nc1nc3ccccc3[nH]1)c(C)n2C | > 26 µM (inactive) |
| CCCC(=O)NC(c1cccs1)c1cc(Cl)c2cccnc2c1O (stereo not drawn) | > 26 µM (inactive) |
| Cc1ccc2nc(C)c(CN3CCN(c4ccc([N+](=O)[O-])cc4Cl)CC3)n2c1 | > 26 µM (inactive) |
| C/C(=N\NC(=O)c1cc2ccccc2cc1O)c1ccccn1 | > 26 µM (inactive) |
| CC[C@H](C)Cc1cn([C@@H](CCCCNC(=O)OC(C)(C)C)C(=O)NCCCCCCCCCCC(=O)N2CCN(C(=O)OC(C)(C)C)CC2)nn1 | > 26 µM (inactive) |
| CC(C)NC(=S)N/N=C/c1cc(Br)ccc1O | > 26 µM (inactive) |
| CCCCSc1ccc(NC(=O)c2cccnc2)cc1 | > 26 µM (inactive) |
| C=C1C(=O)O[C@@H]2C[C@@H](C)[C@@H]3C4OC4C(=O)[C@@]3(C)[C@@H](O)[C@H]12 (stereo partly drawn) | > 26 µM (inactive) |
| CCN(CC)c1ccc(/C=N/NC(=O)c2ccco2)c(O)c1 | > 26 µM (inactive) |
| CC(=O)Cc1cc(O)c2ccccc2c1OC(=O)c1ccc(Br)cc1 | > 26 µM (inactive) |
| Cc1nc(C(=O)NNC(=O)c2c(-c3c(Cl)cccc3Cl)noc2C)cs1 | > 26 µM (inactive) |
| CCN(CC)CCNC(=O)c1ccc(NC(=O)c2cn(-c3ccccc3)nc2-c2cccs2)cc1 | 18.2 µM |
| CCCCCCCCCCOC(=O)Cn1c(COc2ccccc2)[n+](C)c2ccccc21 | > 26 µM (inactive) |

| Compound | AC50 |
| --- | --- |
| CCC(=O)NC(c1ccc(Cl)cc1Cl)c1ccc2cccnc2c1O (stereo not drawn) | > 12 µM (inactive) |
| C=CCNC1=C(Cl)C(=O)c2ccccc2C1=O | > 26 µM (inactive) |
| O=C(N=Nc1c(O)n(Cc2ccccc2)c2ccccc12)c1cc2ccccc2cc1O | > 26 µM (inactive) |
| Cc1cccc2sc(NNC(=O)c3ccc(S(=O)(=O)N4CCCC(C)C4)cc3)nc12 (stereo not drawn) | > 26 µM (inactive) |
| CCCCn1cnc2c(c(-c3ccccc3)c(-c3ccccc3)n2Cc2ccco2)c1=N | > 26 µM (inactive) |
| O=S(=O)(NCc1ccncc1)c1ccc(Br)s1 | > 26 µM (inactive) |
| O=C(NC(Nc1nc2ccc([N+](=O)[O-])cc2s1)(C(F)(F)F)C(F)(F)F)c1cccnc1 | > 26 µM (inactive) |
| O=C(Nc1ccc(-c2noc(-c3cccs3)n2)cc1)c1cccnc1 | > 26 µM (inactive) |
| N=c1c2c(-c3ccccc3)c(-c3ccccc3)n(Cc3ccco3)c2ncn1CCCN1CCOCC1 | 16.7 µM |
| Oc1c(N=Nc2ccccn2)ccc2ccccc12 | > 26 µM (inactive) |
| Clc1ccc(-c2cc(-c3nnc4n3CCCCC4)c3ccccc3n2)cc1 | > 26 µM (inactive) |
| CCn1c(SCC(=O)Nc2cc(C)on2)nc2sc3c(c2c1=O)CCCC3 | > 12 µM (inactive) |
| Nc1ccc(Nc2ccc([N+](=O)[O-])cc2[N+](=O)[O-])cc1 | > 26 µM (inactive) |
| COc1cc(SC#N)ccc1N=Cc1c(C)[nH]n(-c2ccc(C)cc2)c1=O | > 26 µM (inactive) |
| Cc1sc2ncnc(N3CCN(S(=O)(=O)c4ccccc4)CC3)c2c1C | > 26 µM (inactive) |
| CCOC(=O)c1cnc(-n2nc(C)cc2C)nc1NC(C)c1ccccc1 (stereo not drawn) | > 12 µM (inactive) |
| COc1cc(C(=O)Oc2c(CN3CCOCC3)cc(Cl)c3cccnc23)cc(OC)c1OC | > 26 µM (inactive) |
| Oc1ccc(CNc2ccccc2)c2cccnc12 | > 26 µM (inactive) |
| O=[N+]([O-])c1cccc2c(N3CCCC3)ccnc12 | > 26 µM (inactive) |
| CC(C)OCCCNC(=S)N1CCC(C(=O)c2ccc(Cl)cc2)CC1 | > 26 µM (inactive) |
| CC(C)(C)C(=O)NC(=S)NNC(=O)c1ccc(-c2ccccc2)cc1 | > 26 µM (inactive) |
| C/C(=N\NC(=O)c1ccc(Cl)cc1)c1ccccn1 | > 26 µM (inactive) |
| CC(=O)NC(c1ccc(C(C)C)cc1)c1ccc2cccnc2c1O (stereo not drawn) | > 26 µM (inactive) |
| C/C(=N\NC(=O)c1nnn(-c2nonc2N)c1CN(C)c1ccccc1)c1ccccc1O | > 26 µM (inactive) |
